Data: patent EP4745135A1 (Gluetacs Therapeutics (Shanghai) Co., Ltd., priority 2023, dated 2025)

How the values were obtained:
GSPT1 = test: Western blot, degradation of substrate protein in hPBMCs; type: cell-based, Human
[1] = test system: Human multiple myeloma cell (MM.1S); test: Tumor cell proliferation inhibition (CellTiter-Meiluncell luminescent cell viability assay); conditions: for inhibition at 0.01 µM / inhibition at 0.5 µM: Homo sapiens, MM1.S, 96 h; for inhibition at 0.01 µM: read-out: Inhibition Rate at 10 nM (%); for inhibition at 0.5 µM: read-out: Inhibition Rate at 500 nM (%)
[2] = test system: Human multiple myeloma peripheral blood B lymphocyte cell (RPMI-8226); test: as above; conditions: RPMI-8226, 96 h; for inhibition at 0.01 µM: read-out: Inhibition Rate at 10 nM (%); for inhibition at 0.5 µM: read-out: Inhibition Rate at 500 nM (%)
[3] = molecular target: T1, human Cereblon WT GST-tagged protein (Homo sapiens, UniProt Q96SW2); test: CRBN-binding affinity, HTRF (CEREBLON BINDING kit); conditions: for inhibition at 0.5 µM: read-out: Inhibition Rate at 0.5 µM (%); for inhibition at 2 µM: read-out: Inhibition Rate at 2 µM (%)
T1 construct: purchased CISBIO 64BDCRBNPEH
T1 sequence (Q96SW2 whole entry): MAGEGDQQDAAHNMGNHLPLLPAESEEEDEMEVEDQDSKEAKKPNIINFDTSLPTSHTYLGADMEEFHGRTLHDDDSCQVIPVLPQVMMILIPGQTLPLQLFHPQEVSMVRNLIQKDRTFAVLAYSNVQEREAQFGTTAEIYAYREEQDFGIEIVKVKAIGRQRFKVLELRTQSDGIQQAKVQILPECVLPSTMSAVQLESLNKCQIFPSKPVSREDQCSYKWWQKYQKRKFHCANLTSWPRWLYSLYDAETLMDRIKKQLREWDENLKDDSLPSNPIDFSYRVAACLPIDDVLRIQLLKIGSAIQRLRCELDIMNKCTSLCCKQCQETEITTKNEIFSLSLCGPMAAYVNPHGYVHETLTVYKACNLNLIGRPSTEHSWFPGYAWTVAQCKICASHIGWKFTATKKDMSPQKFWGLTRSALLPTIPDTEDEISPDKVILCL

IKZF1 = molecular target: T2, IKZF1 (Homo sapiens, UniProt Q13422+Q96SW2); test: Western blot, degradation of substrate protein in hPBMCs; type: cell-based
T2 construct: effects of the compounds of the present disclosure on the expression of target proteins in cells; endogenous in cells; host or cells: human PBMCs (Milecell Biotechnologies)
T2 sequence (Q13422 whole entry): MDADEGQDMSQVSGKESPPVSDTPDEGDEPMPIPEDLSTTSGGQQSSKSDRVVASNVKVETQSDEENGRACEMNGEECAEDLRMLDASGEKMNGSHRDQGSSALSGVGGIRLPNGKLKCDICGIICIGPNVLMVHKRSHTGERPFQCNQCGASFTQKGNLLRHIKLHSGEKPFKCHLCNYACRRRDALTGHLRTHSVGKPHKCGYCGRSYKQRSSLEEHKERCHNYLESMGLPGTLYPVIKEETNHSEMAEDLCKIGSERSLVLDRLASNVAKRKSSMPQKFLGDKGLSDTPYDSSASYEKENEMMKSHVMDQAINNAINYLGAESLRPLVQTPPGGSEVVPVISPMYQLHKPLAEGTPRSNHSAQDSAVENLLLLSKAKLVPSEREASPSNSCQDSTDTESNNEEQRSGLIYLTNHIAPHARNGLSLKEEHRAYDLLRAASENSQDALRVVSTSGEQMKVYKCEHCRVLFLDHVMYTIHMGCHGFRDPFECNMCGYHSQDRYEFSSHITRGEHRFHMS
T2 sequence (Q96SW2 whole entry): as the sequence (Q96SW2 whole entry) above
T2 sequence (Q16531 whole entry partner): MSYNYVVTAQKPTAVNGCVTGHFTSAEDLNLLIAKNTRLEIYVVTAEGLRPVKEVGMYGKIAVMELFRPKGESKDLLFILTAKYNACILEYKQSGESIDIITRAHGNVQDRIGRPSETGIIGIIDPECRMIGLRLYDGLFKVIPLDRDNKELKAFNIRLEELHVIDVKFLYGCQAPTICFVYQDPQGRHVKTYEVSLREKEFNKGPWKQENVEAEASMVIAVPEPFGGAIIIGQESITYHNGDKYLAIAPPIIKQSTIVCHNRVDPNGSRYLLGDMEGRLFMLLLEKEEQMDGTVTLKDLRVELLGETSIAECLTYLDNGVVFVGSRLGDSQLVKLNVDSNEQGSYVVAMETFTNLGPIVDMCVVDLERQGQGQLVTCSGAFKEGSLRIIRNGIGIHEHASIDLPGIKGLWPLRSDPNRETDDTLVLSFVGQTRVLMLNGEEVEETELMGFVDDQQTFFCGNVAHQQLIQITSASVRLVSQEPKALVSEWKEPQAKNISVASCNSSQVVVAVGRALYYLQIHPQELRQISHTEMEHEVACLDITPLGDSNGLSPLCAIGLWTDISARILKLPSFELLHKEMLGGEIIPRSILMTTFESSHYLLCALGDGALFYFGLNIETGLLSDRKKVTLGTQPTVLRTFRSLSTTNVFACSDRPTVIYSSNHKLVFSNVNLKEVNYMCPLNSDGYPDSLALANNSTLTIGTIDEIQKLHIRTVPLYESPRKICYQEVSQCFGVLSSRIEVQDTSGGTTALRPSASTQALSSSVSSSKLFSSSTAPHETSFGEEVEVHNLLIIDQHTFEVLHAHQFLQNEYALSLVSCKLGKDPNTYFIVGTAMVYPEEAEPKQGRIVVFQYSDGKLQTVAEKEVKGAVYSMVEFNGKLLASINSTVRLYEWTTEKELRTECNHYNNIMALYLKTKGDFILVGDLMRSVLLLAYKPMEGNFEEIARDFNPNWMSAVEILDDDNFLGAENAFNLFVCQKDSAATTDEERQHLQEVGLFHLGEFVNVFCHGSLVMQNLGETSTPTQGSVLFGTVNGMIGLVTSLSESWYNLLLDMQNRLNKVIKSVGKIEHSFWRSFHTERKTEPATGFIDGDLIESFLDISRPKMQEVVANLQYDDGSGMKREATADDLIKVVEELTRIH

CK1α = molecular target: T3, CK1α (Homo sapiens, UniProt P48729+Q96SW2); test: as above; type: cell-based
T3 construct: effects of the compounds of the present disclosure on the expression of target proteins in cells; endogenous in cells; host or cells: human PBMCs (Milecell Biotechnologies)
T3 sequence (P48729 whole entry): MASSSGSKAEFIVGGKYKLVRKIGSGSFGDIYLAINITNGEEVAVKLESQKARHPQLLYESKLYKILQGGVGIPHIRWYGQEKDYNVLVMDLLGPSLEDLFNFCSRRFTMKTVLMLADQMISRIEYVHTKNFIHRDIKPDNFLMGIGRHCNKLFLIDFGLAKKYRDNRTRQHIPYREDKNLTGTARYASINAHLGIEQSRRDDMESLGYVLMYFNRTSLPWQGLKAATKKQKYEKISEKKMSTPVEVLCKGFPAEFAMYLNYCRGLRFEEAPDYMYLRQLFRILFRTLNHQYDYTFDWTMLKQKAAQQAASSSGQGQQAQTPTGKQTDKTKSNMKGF
T3 sequence (Q96SW2 whole entry): as the sequence (Q96SW2 whole entry) above
T3 sequence (Q16531 whole entry partner): as the sequence (Q16531 whole entry partner) above

IKZF3 = molecular target: T4, IKZF3 (Homo sapiens, UniProt Q96SW2+Q9UKT9); test: as above; type: cell-based
T4 construct: effects of the compounds of the present disclosure on the expression of target proteins in cells; endogenous in cells; host or cells: human PBMCs (Milecell Biotechnologies)
T4 sequence (Q9UKT9 whole entry): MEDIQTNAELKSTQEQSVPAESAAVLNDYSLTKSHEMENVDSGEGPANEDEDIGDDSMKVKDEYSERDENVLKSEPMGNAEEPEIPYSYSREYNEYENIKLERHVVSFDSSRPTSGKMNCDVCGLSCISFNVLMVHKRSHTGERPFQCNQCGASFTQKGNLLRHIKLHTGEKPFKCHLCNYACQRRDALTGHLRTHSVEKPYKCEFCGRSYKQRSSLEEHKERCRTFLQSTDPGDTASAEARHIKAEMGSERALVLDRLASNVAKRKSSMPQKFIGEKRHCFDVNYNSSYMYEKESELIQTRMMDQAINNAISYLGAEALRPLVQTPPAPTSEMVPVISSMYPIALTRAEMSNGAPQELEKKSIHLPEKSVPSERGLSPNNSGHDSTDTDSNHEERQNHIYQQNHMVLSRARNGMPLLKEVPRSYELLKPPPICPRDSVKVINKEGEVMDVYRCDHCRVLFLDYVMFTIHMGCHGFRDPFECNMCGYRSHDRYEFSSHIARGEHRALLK
T4 sequence (Q96SW2 whole entry): as the sequence (Q96SW2 whole entry) above
T4 sequence (Q16531 whole entry partner): as the sequence (Q16531 whole entry partner) above

WEE1 = molecular target: T5, WEE1 (Homo sapiens, UniProt P30291+Q96SW2); test: as above; type: cell-based
T5 construct: effects of the compounds of the present disclosure on the expression of target proteins in cells; endogenous in cells; host or cells: human PBMCs (Milecell Biotechnologies)
T5 sequence (P30291 whole entry): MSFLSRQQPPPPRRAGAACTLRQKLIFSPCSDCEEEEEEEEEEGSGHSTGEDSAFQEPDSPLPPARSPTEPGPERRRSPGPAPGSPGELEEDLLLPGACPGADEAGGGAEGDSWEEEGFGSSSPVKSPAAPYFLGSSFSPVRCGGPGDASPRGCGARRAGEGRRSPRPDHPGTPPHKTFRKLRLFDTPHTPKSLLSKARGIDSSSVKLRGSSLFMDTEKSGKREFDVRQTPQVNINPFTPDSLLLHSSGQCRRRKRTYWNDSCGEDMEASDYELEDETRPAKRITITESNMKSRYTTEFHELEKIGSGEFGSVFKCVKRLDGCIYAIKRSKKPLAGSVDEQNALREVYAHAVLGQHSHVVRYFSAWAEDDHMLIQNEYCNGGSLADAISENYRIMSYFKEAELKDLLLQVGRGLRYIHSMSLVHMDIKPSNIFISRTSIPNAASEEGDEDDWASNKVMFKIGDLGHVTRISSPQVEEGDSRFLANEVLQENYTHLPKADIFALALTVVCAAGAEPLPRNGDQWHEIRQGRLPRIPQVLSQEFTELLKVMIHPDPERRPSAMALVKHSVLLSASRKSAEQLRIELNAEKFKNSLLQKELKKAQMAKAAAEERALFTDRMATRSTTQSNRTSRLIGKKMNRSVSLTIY
T5 sequence (Q96SW2 whole entry): as the sequence (Q96SW2 whole entry) above
T5 sequence (Q16531 whole entry partner): as the sequence (Q16531 whole entry partner) above

IKZF2 = molecular target: T6, IKZF2 (Homo sapiens, UniProt Q96SW2+Q9UKS7); test: as above; type: cell-based
T6 construct: effects of the compounds of the present disclosure on the expression of target proteins in cells; endogenous in cells; host or cells: human PBMCs (Milecell Biotechnologies)
T6 sequence (Q9UKS7 whole entry): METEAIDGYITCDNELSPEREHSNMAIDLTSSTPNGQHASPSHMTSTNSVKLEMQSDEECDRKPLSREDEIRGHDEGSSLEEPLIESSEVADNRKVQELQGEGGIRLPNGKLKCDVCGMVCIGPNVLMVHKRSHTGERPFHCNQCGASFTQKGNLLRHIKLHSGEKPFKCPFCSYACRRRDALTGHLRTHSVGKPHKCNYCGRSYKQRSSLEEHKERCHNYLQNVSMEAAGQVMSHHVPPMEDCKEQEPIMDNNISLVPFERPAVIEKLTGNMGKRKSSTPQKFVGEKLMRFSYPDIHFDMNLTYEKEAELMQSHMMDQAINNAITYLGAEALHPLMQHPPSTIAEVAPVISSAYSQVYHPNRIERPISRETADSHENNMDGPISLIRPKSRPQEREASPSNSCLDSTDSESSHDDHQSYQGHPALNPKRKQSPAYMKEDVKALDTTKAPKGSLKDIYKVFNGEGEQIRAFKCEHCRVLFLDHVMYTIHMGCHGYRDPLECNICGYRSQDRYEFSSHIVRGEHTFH
T6 sequence (Q96SW2 whole entry): as the sequence (Q96SW2 whole entry) above
T6 sequence (Q16531 whole entry partner): as the sequence (Q16531 whole entry partner) above

[4] = test system: Human acute T lymphocytic leukemia cell (Molt4); test: Tumor cell proliferation inhibition (CellTiter-Meiluncell luminescent cell viability assay); conditions: MOLT-4, 96 h
[5] = test system: Human myeloid monocytic leukemia cell (MV-4-11); test: as above; conditions: MV4-11, 96 h; for inhibition at 0.01 µM: read-out: Inhibition Rate at 10 nM (%); for inhibition at 0.5 µM: read-out: Inhibition Rate at 500 nM (%)
Procedure: The tumor cells used herein were cultured in a cell culture medium listed in table 2 at 37°C in an incubator with 5% CO2. Prior to experimentation, all cell lines used were correctly identified by STR profiling, and tested negative for mycoplasma contamination using a mycoplasma detection kit through routine screenings.
The IC50 values of the compounds of the present disclosure (including the compounds in Table 1 and Examples) were determined using the CellTiter-Meiluncell Luminescent Cell Viability Assay Kit from Dalian Meilun Biotech Co., Ltd. The detailed procedure is as follows: Tumor cells were seeded in 96-well cell culture plates at the densities specified in Table 3. On the following day, the test compounds of the present disclosure were subjected to serial dilution. The dilution can be performed according to one of the following two methods: • (1) The first dilution method: The test compounds of the present disclosure (including the compounds in Table 1 and Examples) were subjected to 5-fold serial dilutions starting from a highest concentration of 2000 µM, resulting in a total of 9 concentrations from high to low (2000, 400, 80, 16, 3.2, 0.64, 0.128, 0.0256, 0.00512 µM). Subsequently, 0.5 µL of the test compound dilution was transferred into the 96-well plate containing the cells, with each well containing 100 µL of cell culture medium. […] Into the 96-well plate, the diluted test compounds and corresponding detection reagents were added, resulting in final test compound concentrations of 500 nM and 10 nM, respectively. The experimental procedure is described below using the diluted 2 µM test compound as an example.
0.5 µL of the aforementioned diluted compound of the present disclosure (including the compounds in Table 1 and Examples) was added to the seeded cells in 100 µL of medium, yielding a final test compound concentration of 10 nM. After the cells were treated with the compounds of the present disclosure for a specified period, the cell viability assay reagent was added to the culture medium according to the kit's instructions to determine cell viability. […] All controls were treated using the same procedure as the compounds of the present disclosure. The growth inhibition curves for the compounds of the present disclosure were plotted using Prism GraphPad software, and the IC50 values were calculated therefrom.

[6] = Western blot, 24 hours of compound treatment, compounds tested at 50 nM and 500 nM (concentration for the table not stated)
[7] = 24 hours treatment, compounds at 50 nM and 500 nM (concentration behind the class not stated)

Row | Compound | inhibition at 0.5 µM [3] [%] | inhibition at 2 µM [3] [%] | GSPT1 substrate protein remaining % (GSPT1; [6]) | inhibition at 0.01 µM [1] [%] | inhibition at 0.01 µM [2] [%] | inhibition at 0.5 µM [2] [%] | IKZF 1 substrate protein remaining % (IKZF1; [6]) | CK1α substrate protein remaining % (CK1α; [6]) | IKZF3 substrate protein remaining % (IKZF3; [6]) | Wee1 substrate protein remaining % (WEE1; [6]) | IKZF2 substrate protein remaining % (IKZF2; [6]) | inhibition at 0.5 µM [1] [%] | inhibition at 0.01 µM [5] [%] | inhibition at 0.5 µM [5] [%] | also measured
1 | Cc1cccc(N2CCN(Cc3ccc4c(c3)CN(C3CCC(=O)NC3=O)C4=S)CC2)c1 (stereo not shown) [GT-08602, 3-(1-thioxo-5-((4-(m-tolyl)piperazin-1-yl)methyl)isoindolin-2-yl)piperidine-2,6-dione] | 40 to 53 | 80 to 100 | A (0% ≤ substrate protein remaining % ≤ 80%) | 10 to 20 | 10 to 20 | 70 to 80 | B (80%< substrate protein remaining %≤ 100%) | B (80%< substrate protein remaining %≤ 100%) | B (80%< substrate protein remaining %≤ 100%) | A (0% ≤ substrate protein remaining % ≤ 80%) | B (80%< substrate protein remaining %≤ 100%) | 80 to 100 | 18 to 25 | 80 to 100 | inhibition at 0.01 µM ([4]; read-out: Inhibition Rate at 10 nM (%)): -5 to 0%; inhibition at 0.5 µM ([4]; read-out: Inhibition Rate at 500 nM (%)): 80 to 100%
2 | O=C1CCC(N2Cc3c(CN4C[C@@H]5C[C@H]4CN5C(c4ccccc4)c4ccccc4)cccc3C2=S)C(=O)N1 (stereo partly drawn) [GT-08207, 3-(4-(((1 S,4S)-5-benzhydryl-2,5-diazabicyclo[2.2.1]heptan-2-yl)methyl)-1-thioxoisoindolin-2-yl)piperidine-2,6-dione] | 40 to 53 | 60 to 80 | A (0% ≤ substrate protein remaining % ≤ 80%) |  | 50 to 60 | 60 to 70 | A (0% ≤ substrate protein remaining % ≤ 80%) | B (80%< substrate protein remaining %≤ 100%) | B (80%< substrate protein remaining %≤ 100%) | A (0% ≤ substrate protein remaining % ≤ 80%) | B (80%< substrate protein remaining %≤ 100%) |  |  |  | 
3 | O=C1CCC(N2Cc3c(CN4CCN(C(=O)C5=C(c6ccc(F)cc6)CCCC5)CC4)cccc3C2=S)C(=O)N1 (stereo not shown) [GT-08294, 3-(4-((4-(4'-fluoro-3,4,5,6-tetrahydro-[1,1'-biphenyl]-2-carbonyl)piperazin-1-yl)methyl)-1-thioxoisoindolin-2-yl)piperidine-2,6-dione] | 30 to 40 | 80 to 100 | B (80%< substrate protein remaining %≤ 100%) |  | 20 to 30 | 40 to 50 | B (80%< substrate protein remaining %≤ 100%) | A (0% ≤ substrate protein remaining % ≤ 80%) | B (80%< substrate protein remaining %≤ 100%) | B (80%< substrate protein remaining %≤ 100%) | B (80%< substrate protein remaining %≤ 100%) |  | 40 to 60 | 60 to 80 | 
4 | N#Cc1ccc(N2CCN(Cc3ccc(COc4cccc5c4CN([C@H]4CCC(=O)NC4=O)C5=S)cc3)CC2)c(F)c1 [GT-05957, (S)-4-(4-(4-(((2-(2,6-dioxopiperidin-3-yl)-1-thioxoisoindolin-4-yl)oxy)methyl)benzyl)piperazin-1-yl)-3-fluorobenzonitrile] |  |  |  | 80 to 100 | 50 to 60 | 60 to 70 |  |  |  |  |  | 80 to 100 | 25 to 30 | 40 to 60 | GSPT1 substrate protein remaining % (GSPT1; [7]): A (0% ≤ substrate protein remaining % ≤ 80%); IC50 ([3]; CRBN binding, HTRF, 3 hours at room temperature, read-out: HTRF IC50): 100 to 500 nM; IKZF 1 substrate protein remaining % (IKZF1; [7]): A (0% ≤ substrate protein remaining % ≤ 80%); CK1α substrate protein remaining % (CK1α; [7]): B (80%< substrate protein remaining %≤ 100%); IKZF3 substrate protein remaining % (IKZF3; [7]): A (0% ≤ substrate protein remaining % ≤ 80%); Wee1 substrate protein remaining % (WEE1; [7]): B (80%< substrate protein remaining %≤ 100%); IKZF2 substrate protein remaining % (IKZF2; [7]): A (0% ≤ substrate protein remaining % ≤ 80%)
5 | O=C1CCC(N2Cc3cc(CN4CCN(c5cc(Cl)cc(Cl)c5)CC4)ccc3C2=S)C(=O)N1 (stereo not shown) [GT-08624, 3-(5-((4-(3,5-dichlorophenyl)piperazin-1-yl)methyl)-1-thioxoisoindolin-2-yl)piperidine-2,6-dione] | 30 to 40 | 80 to 100 | A (0% ≤ substrate protein remaining % ≤ 80%) | 20 to 30 | 10 to 20 | 60 to 70 | B (80%< substrate protein remaining %≤ 100%) | B (80%< substrate protein remaining %≤ 100%) | B (80%< substrate protein remaining %≤ 100%) | B (80%< substrate protein remaining %≤ 100%) | B (80%< substrate protein remaining %≤ 100%) | 80 to 100 | 18 to 25 | 80 to 100 | 

Now from value to compound, other results behind:

Row | inhibition at 0.5 µM [3] [%] | inhibition at 2 µM [3] [%] | Compound | GSPT1 substrate protein remaining % (GSPT1; [6]) | inhibition at 0.01 µM [1] [%] | inhibition at 0.01 µM [2] [%] | inhibition at 0.5 µM [2] [%] | IKZF 1 substrate protein remaining % (IKZF1; [6]) | CK1α substrate protein remaining % (CK1α; [6]) | IKZF3 substrate protein remaining % (IKZF3; [6]) | Wee1 substrate protein remaining % (WEE1; [6]) | IKZF2 substrate protein remaining % (IKZF2; [6]) | inhibition at 0.5 µM [1] [%] | inhibition at 0.01 µM [5] [%] | inhibition at 0.5 µM [5] [%] | also measured
6 | 40 to 53 | 80 to 100 | O=C1CCC(N2Cc3c(CN4CCN(c5cccc6sccc56)CC4)cccc3C2=S)C(=O)N1 (stereo not shown) [GT-08364, 3-(4-((4-(benzo[b]thiophen-4-yl)piperazin-1-yl)methyl)-1-thioxoisoindolin-2-yl)piperidine-2,6-dione] | A (0% ≤ substrate protein remaining % ≤ 80%) | 40 to 50 | 20 to 30 | 40 to 50 | B (80%< substrate protein remaining %≤ 100%) | B (80%< substrate protein remaining %≤ 100%) | B (80%< substrate protein remaining %≤ 100%) | A (0% ≤ substrate protein remaining % ≤ 80%) | B (80%< substrate protein remaining %≤ 100%) |  |  |  | Inhibition Rate at 500 nM (%) ([1]; MM.1S, 500 nM, 96 hours): la8
7 | 40 to 53 | 80 to 100 | O=C1CCC(N2Cc3c(CN4CCN(C(c5ccccc5)c5ccncc5)CC4)cccc3C2=S)C(=O)N1 (stereo not shown) [GT-08204, 3-(4-((4-(phenyl(pyridin-4-yl)methyl)piperazin-1-yl)methyl)-1-thioxoisoindolin-2-yl)piperidine-2,6-dione] | B (80%< substrate protein remaining %≤ 100%) |  | 60 to 70 | 70 to 80 | B (80%< substrate protein remaining %≤ 100%) | B (80%< substrate protein remaining %≤ 100%) | B (80%< substrate protein remaining %≤ 100%) | A (0% ≤ substrate protein remaining % ≤ 80%) | B (80%< substrate protein remaining %≤ 100%) |  |  |  | 
8 | 30 to 40 | 60 to 80 | O=C1CCC(N2Cc3c(CN4CCN(C(c5ccc(F)cc5)c5ccc(F)cc5)CC4)cccc3C2=S)C(=O)N1 (stereo not shown) [GT-08202, 3-(4-((4-(bis(4-fluorophenyl)methyl)piperazin-1-yl)methyl)-1-thioxoisoindolin-2-yl)piperidine-2,6-dione] | A (0% ≤ substrate protein remaining % ≤ 80%) |  | 20 to 30 | 40 to 50 | A (0% ≤ substrate protein remaining % ≤ 80%) | B (80%< substrate protein remaining %≤ 100%) | A (0% ≤ substrate protein remaining % ≤ 80%) | A (0% ≤ substrate protein remaining % ≤ 80%) | A (0% ≤ substrate protein remaining % ≤ 80%) |  | 30 to 40 | 40 to 60 | 
9 | 30 to 40 | 60 to 80 | O=C1CCC(N2Cc3c(CN4CCN(CC5=C(c6ccc(F)cc6)CCCC5)CC4)cccc3C2=S)C(=O)N1 (stereo not shown) [GT-08293, 3-(4-((4-((4'-fluoro-3,4,5,6-tetrahydro-[1,1'-biphenyl]-2-yl)methyl)piperazin-1-yl)methyl)-1-thioxoisoindolin-2-yl)piperidine-2,6-dione] | B (80%< substrate protein remaining %≤ 100%) |  | 20 to 30 | 40 to 50 | B (80%< substrate protein remaining %≤ 100%) | B (80%< substrate protein remaining %≤ 100%) | B (80%< substrate protein remaining %≤ 100%) | A (0% ≤ substrate protein remaining % ≤ 80%) | B (80%< substrate protein remaining %≤ 100%) |  |  |  | 
